Data from patent US20080194585A1, “Fungicidal Pyrazine Derivatives” (priority 2005, published 2008).
Marks after values point to notes of the source that are not given here.

What was measured:
Septoria nodorum = assay: Test H: wheat glum blotch, preventive spray on wheat seedlings
Method: (the causal agent of wheat glum blotch) and incubated in a saturated atmosphere at 20° C. for 48 h, and then moved to a growth chamber at 22° C. for 5 days, after which disease ratings were made.

Sclerotinia sclerotiorum = assay: Test C: cucumber white mold, preventive spray on cucumber seedlings
Phytophthora infestans = assay: whole plant or invertebrate; assay type: in vivo
[1] = tested on: Colletotrichum orbiculare; assay: Test B: cucumber Colletotrichum anthracnose, preventive spray on cucumber seedlings
Plasmopara viticola = assay: Test D: grape downy mildew, spray after inoculation of grape seedlings; assay type: in vivo
From the text: Upon removal, disease ratings were made. […] A dash (-) indicates no test results.

Rhizoctonia oryzae = assay: Test G: turf brown patch, preventive spray on creeping bent grass seedlings
Method: (the causal agent of turf brown patch) and incubated in a saturated atmosphere at 27° C. for 24 h, and then moved to a growth chamber at 27° C. for 5 days, after which disease ratings were made.

Pythium aphanidermatum = assay: Test A: bluegrass pythium blight, preventive spray on bluegrass seedlings
fusarium graminearium = assay: Test I: wheat head scab, preventive spray on wheat seedlings
Method: (the causal agent of wheat head scab) and incubated in a saturated atmosphere at 20° C. for 72 h, and then moved to a growth chamber at 22° C. for 5 days, after which disease ratings were made.

Septoria tritici = assay: Test J: wheat leaf blotch, preventive spray on wheat seedlings; assay type: in vivo
From the text: A dash (-) indicates no test results.

[2] = tested on: Erysiphe graminis f. sp. tritici; assay: Test L: wheat powdery mildew, preventive spray on wheat seedlings
[3] = tested on: Puccinia recondita f. sp. tritici; assay: Test K: wheat leaf rust, preventive spray on wheat seedlings
Botrytis cinerea = assay: Test E: tomato botrytis, preventive spray on tomato seedlings

| SMILES | Test H disease control rating (Septoria nodorum; 40 ppm (*)) | Test C disease control rating (Sclerotinia sclerotiorum; 40 ppm (*)) | Test F disease control rating (Phytophthora infestans; 40 ppm (*)) | Test B disease control rating ([1]; 40 ppm (*)) | Test D disease control rating (Plasmopara viticola; 40 ppm (*)) | Test G disease control rating (Rhizoctonia oryzae; 40 ppm (*)) | Test A disease control rating (Pythium aphanidermatum; 40 ppm (*)) | Test I disease control rating (fusarium graminearium; 40 ppm (*)) | Test J disease control rating (Septoria tritici; 40 ppm (*)) | Test L disease control rating ([2]; 40 ppm (*)) | Test K disease control rating ([3]; 40 ppm (*)) | Test E disease control rating (Botrytis cinerea; 40 ppm (*)) | also measured |
| --- | --- | --- | --- | --- | --- | --- | --- | --- | --- | --- | --- | --- | --- |
| COC(=O)c1ccc(-c2c(Cl)nc(-n3cccn3)c(=O)n2CC(C)C)cc1 [compound 147] |  |  |  |  |  |  |  |  |  |  |  |  | Test H disease control rating (Septoria nodorum; 200 ppm): 0%; Test C disease control rating (Sclerotinia sclerotiorum; 200 ppm): 0%; Test F disease control rating (Phytophthora infestans; 200 ppm): 93%; Test B disease control rating ([1]; 200 ppm): 0%; Test D disease control rating (Plasmopara viticola; 200 ppm): 92%; Test G disease control rating (Rhizoctonia oryzae; 200 ppm): 0%; Test A disease control rating (Pythium aphanidermatum; 200 ppm): 0%; Test I disease control rating (fusarium graminearium; 200 ppm): 0%; Test J disease control rating (Septoria tritici; 200 ppm): 96%; Test L disease control rating ([2]; 200 ppm): 0%; Test K disease control rating ([3]; 200 ppm): 80%; Test E disease control rating (Botrytis cinerea; 200 ppm): 97% |
| CC(C)Cn1c(-c2ccccc2)c(Cl)nc(-n2cccn2)c1=O [compound 172] | 0* % | 0* % | 57* % | 0* % | 0* % | 41* % | 0* % | 0* % | 64* % | 0* % | 0* % | 07* % |  |
| CC(C)Cn1c(-c2ccccc2)c(Cl)nc(-n2cncn2)c1=O [compound 173] | 0* % | 0* % | 0* % | 0* % | 0* % | 0* % | 0* % | 0* % | 45* % | 0* % | 0* % | 0* % |  |
| COc1ccccc1-c1c(Cl)nc(-n2cncn2)c(=O)n1CC(C)C [compound 177] | 0* % | 0* % | 0* % | 0* % | 0* % | 0* % | 0* % | 0* % | 7* % | 0* % | 0* % | 0* % |  |
| CC(C)Cn1c(-c2cccc(F)c2)c(Cl)nc(-n2cncn2)c1=O [compound 230] | 0* % | 0* % | 0* % | 0* % | 0* % | 0* % | 0* % | 0* % | 24* % | 0* % | 0* % | 82* % |  |
| CC(C)Cn1c(-c2cccc(F)c2)c(Cl)nc(-n2cccn2)c1=O [compound 231] | 0* % | 0* % | 0* % | 0* % | 0* % | 0* % | 0* % | 0* % | 89* % | 0* % | 28* % | 99* % |  |
| CC(C)Cn1c(-c2cccc(C(F)(F)F)c2)c(Cl)nc(-n2cncn2)c1=O [compound 232] | 0* % | 0* % | 0* % | 0* % | 0* % | 0* % | 0* % | 0* % | 0* % | 0* % | 0* % | 0* % |  |
| CC(C)Cn1c(-c2cccc(C(F)(F)F)c2)c(Cl)nc(-n2cccn2)c1=O [compound 233] | 0* % | 0* % | 0* % | 0* % | 0* % | 0* % | 0* % | 0* % | 0* % | 0* % | 0* % | 0* % |  |
| CC(C)Cn1c(-c2cccc(Br)c2)c(Cl)nc(-n2cncn2)c1=O [compound 234] | 0* % | 0* % | 0* % | 0* % | 0* % | 0* % | 0* % | 0* % | 0* % | 0* % | 0* % | 0* % |  |
| CC(C)Cn1c(-c2cccnc2)c(Cl)nc(-n2cncn2)c1=O [compound 235] | 0* % | 0* % | 0* % | 0* % | 0* % | 0* % | 45* % | 0* % | 0* % | 0* % | 0* % | 0* % |  |
| CC(C)Cn1c(-c2cccnc2Cl)c(Cl)nc(-n2cncn2)c1=O [compound 236] | 0* % | 0* % | 0* % | 0* % | 0* % | 0* % | 0* % | 0* % | 0* % | 0* % | 0* % | 0* % |  |
| CC(C)Cn1c(-c2cccnc2)c(Cl)nc(-n2cccn2)c1=O [compound 237] | 0* % | 0* % | 0* % | 0* % | 0* % | 0* % | 0* % | 0* % | 24* % | 0* % | 0* % | 0* % |  |
| CC(CF)n1c(-c2c(F)cccc2F)c(Cl)nc(-n2cccn2)c1=O (stereo not drawn) [compound 238] | 98* % | 0* % | 0* % | 63* % | 0* % | 93* % | 0* % | 0* % | 96* % | 74* % | 100* % | 99* % |  |
